This is an account of results in ChEMBL document CHEMBL4418498, “Halogenated benzotropolones as atg4b inhibitors” (2018).

For series [1], the target named is T1, Cysteine protease ATG4B (Homo sapiens) (UniProt Q9Y4P1).
T1 sequence (whole entry): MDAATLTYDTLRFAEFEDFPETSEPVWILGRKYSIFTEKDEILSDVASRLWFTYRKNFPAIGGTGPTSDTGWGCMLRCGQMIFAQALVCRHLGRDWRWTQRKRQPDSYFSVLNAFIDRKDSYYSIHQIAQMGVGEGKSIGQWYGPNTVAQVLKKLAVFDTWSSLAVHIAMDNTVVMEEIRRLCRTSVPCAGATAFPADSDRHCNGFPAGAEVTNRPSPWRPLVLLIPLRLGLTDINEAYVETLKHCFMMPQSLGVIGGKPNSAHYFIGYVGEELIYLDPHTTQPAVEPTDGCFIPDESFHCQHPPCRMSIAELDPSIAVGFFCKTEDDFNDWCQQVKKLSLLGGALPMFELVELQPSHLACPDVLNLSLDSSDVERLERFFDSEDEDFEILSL
Put plainly: Inhibition of Atg4B in human Jurkat T-cells assessed as reduction in everolimus-induced autophagy at […] incubated for 16 hrs by CYTO-ID-based phenotypical screening assay relative to control everolimus alone (reference value: 1 No unit). The series is classed as cell-based.

Series [2] in a line: Metabolic stability in mouse liver microsomes assessed as parent compound recovery after 30 mins in presence of NADPH regenerating system by LC-MS/MS analysis. The series is classed as ADME, Microsome. Particulars: read-out: Drug recovery.

On to `Cn1cnc(N)c2ncnc1-2`, for which the Ratio in series [1] is 0.57. Turning to `O=C(O)c1cc(O)c(=O)c2c(O)c(O)c(Br)cc2c1`, in series [2], the remaining at 0.5 h was 100%.
